Here are results for one substance from patent publication US20260139314A1, “COMPOSITION AND METHOD FOR PREDICTING SULFONYLUREA DEPENDENCY USING GIPR MARKER” (Seoul National University Hospital, priority 2022, published 2026).

Experiment [1] relates to INS1 rat insulinoma cells. Kind of experiment: Insulin secretion stimulated with low-dose SU (50 nM glimepiride, ELISA). It counts as cell-based. The settings on record: non-diabetic conditions; GIPR inhibitor 100 nM, 24 h; 50 nM glimepiride for 30 minutes. The protocol:
INS1 rat insulinoma cells were transfected with siGipr and siNS (80 nM) and stimulated for insulin secretion with low-dose SU (50 nM glimepiride for 30 minutes). Insulin secretion was measured using an ELISA kit.
(a) Physiological condition (b) Diabetic condition simulated by pre-treating with 15-mM glucose and 150-μM palmitic acid for 24 hours (glucolipotoxicity).
(§1) INS1 rat insulinoma cells were treated with a GIPR inhibitor (rat GIP(3-30), 100 nM, 24 h) and the inhibition of insulin secretion by GIP was confirmed. Insulin secretion was stimulated with low-dose SU (50 nM glimepiride for 30 minutes) and measured using an ELISA kit.
Next, the SU response was examined based on Gipr suppression. […] However, under diabetic conditions—chronic exposure to high glucose and fatty acids (glucolipotoxicity)—Gipr suppression increased insulin secretion in response to low-dose SU (FIG. 4b).
Background: ELISA stands for enzyme-linked immunosorbent assay.

Experiment [2] deals with INS1 rat insulinoma cells. The experiment can be described thus: GIP-induced insulin secretion (ELISA). Conditions: GIPR inhibitor 100 nM, 24 h. The experiment is classed as cell-based. The protocol:
INS1 rat insulinoma cells were transfected with 80-nM siRNA for Gipr and negative control.
(c) ELISA: Insulin secretion induced by GIP treatment (50 nM for 1 hour) was attenuated by siGipr. • siGipr, siRNA for Gipr; siNS, siRNA for negative control; siRNA, small interfering RNA; NS, no significant difference
as §1
Experiments were conducted to suppress the expression of the rat Gipr gene, which shares the same gene sequence as human GIPR.

Regarding rat GIP(3-30), the “Insulin secretion by SU” value in experiment [1] is listed as “trend of enhanced insulin secretion”. Further, the “Inhibition of insulin secretion by GIP” value in experiment [2] is on record as “confirmed”.
